According to ChEMBL document CHEMBL4350972, “Design, synthesis and pharmacological evaluation of a novel mTOR-targeted anti-EV71 agent” (Eur J Med Chem, 2019):
≈ marks a conversion by molar mass, not a printed value. Calls of active or inactive are those of the source. The calls are words filed in the database; no cut-off is given here.

Experiments:
Enterovirus A71 = assay: Antiviral activity against Enterovirus A71 infected in human RD cells assessed as reduction in virus-induced cell death incubated for 4 days by CellTiter-Glo luminescence assay; assay type: functional, organism-based; details: Enterovirus A, 96 h
[1] = Cytotoxicity against human RD cells incubated for 4 days by CellTiter-Glo luminescence assay; assay type: cell-based
mTORC1 (Homo sapiens) = mTORC1 (Homo sapiens) (UniProt P42345+Q8N122+Q9BVC4); assay: Inhibition of mTORC1 in human RD cells assessed as reduction in P70S6K1 phosphorylation at Thr 389 site at 20 uM incubated for 2 hrs in presence of insulin by Western blot analysis; assay type: cell-based
mTORC2 (Homo sapiens) = mTORC2 (Homo sapiens) (UniProt P42345+Q6R327+Q9BVC4+Q9BPZ7); assay: Inhibition of mTORC2 in human RD cells assessed as reduction in Akt phosphorylation at Ser473 site at 20 uM incubated for 2 hrs in presence of insulin by Western blot analysis; assay type: cell-based
[2] = Ratio of aqueous solubility for Torin2 to aqueous solubility for test compound; assay type: physicochemical; details: buffer
[3] = Aqueous solubility of the compound; assay type: physicochemical

In the case of `CN(C)c1ccc(-c2ccc3ncc4ccc(=O)n(-c5cccc(C(F)(F)F)c5)c4c3c2)cn1`, the IC50 (Enterovirus A71) is reported as 0.27 µM, the CC50 at 96 h [1] is reported as 0.17 µM and the inhibition (mTORC1 (Homo sapiens)) is reported as “Active”. The inhibition (mTORC2 (Homo sapiens)) was “Active”.
In the case of `O=C(Nc1ccc(-c2ccc3ncc4ccc(=O)n(-c5cccc(C(F)(F)F)c5)c4c3c2)cn1)Oc1ccccc1`, the IC50 (Enterovirus A71) is reported as 0.09 µM, the CC50 at 96 h [1] is reported as 0.2 µM and the inhibition (mTORC1 (Homo sapiens)) is reported as “Active”. For the same compound, the inhibition (mTORC2 (Homo sapiens)) was “Active”.
In the case of `O=C1Cc2cc(-c3ccc4ncc5ccc(=O)n(-c6cccc(C(F)(F)F)c6)c5c4c3)ccc2N1`, the IC50 (Enterovirus A71) is reported as 7.4 µM, the CC50 at 96 h [1] is reported as 10.3 µM and the inhibition (mTORC1 (Homo sapiens)) is reported as “Active”.
For `O=c1ccc2cnc3ccc(-c4ccc(N5CCOCC5)nc4)cc3c2n1-c1cccc(C(F)(F)F)c1`, the IC50 (Enterovirus A71) was 2.63 µM, the CC50 at 96 h [1] was 2.91 µM and the inhibition (mTORC1 (Homo sapiens)) was “Active”. For the same compound, the inhibition (mTORC2 (Homo sapiens)) was “Active”.
In the case of `CCC(=O)Nc1ccc(-c2ccc3ncc4ccc(=O)n(-c5cccc(C(F)(F)F)c5)c4c3c2)cn1`, the IC50 (Enterovirus A71) is reported as 0.027 µM, the CC50 at 96 h [1] is reported as 0.04 µM and the inhibition (mTORC1 (Homo sapiens)) is reported as “Active”. For the same compound, the inhibition (mTORC2 (Homo sapiens)) was “Active”.
In the case of `CC(=O)/C=C/c1cnc2ccc(-c3cnc4ccccc4c3)cc2c1Nc1cccc(C(F)(F)F)c1`, the CC50 at 96 h [1] is reported as 0.68 µM.
In the case of `CC(C)(C)OC(=O)Nc1ccc(-c2ccc3ncc4ccc(=O)n(-c5cccc(C(F)(F)F)c5)c4c3c2)cn1`, the IC50 (Enterovirus A71) is reported as 2.47 µM, the CC50 at 96 h [1] is reported as 0.69 µM and the inhibition (mTORC1 (Homo sapiens)) is reported as “Active”. For the same compound, the inhibition (mTORC2 (Homo sapiens)) was “Active”.
`COC(=O)/C=C/c1ccc2ncc3oc(=O)n(-c4cccc(C(F)(F)F)c4)c3c2c1` gave a CC50 at 96 h [1] of 72 µM.
Work on `N#C/C=C/c1ccc2ncc3oc(=O)n(-c4cccc(C(F)(F)F)c4)c3c2c1` yielded a CC50 at 96 h [1] greater than 200 µM.
For `Nc1cccc(Nc2ccc3ncc4ccc(=O)n(-c5cccc(C(F)(F)F)c5)c4c3c2)n1`, the IC50 (Enterovirus A71) was 2.47 µM, the CC50 at 96 h [1] was 5.19 µM and the inhibition (mTORC1 (Homo sapiens)) was “Active”. The inhibition (mTORC2 (Homo sapiens)) was “Active”.
With `CC(=O)/C=C/c1cnc2ccc(-c3ccc(N)cc3)cc2c1Nc1cccc(C(F)(F)F)c1` the IC50 (Enterovirus A71) was 5.14 µM, the CC50 at 96 h [1] was 5.14 µM and the inhibition (mTORC1 (Homo sapiens)) was “inactive”. For the same compound, the inhibition (mTORC2 (Homo sapiens)) was “inactive”.
For `O=c1ccc2cnc3ccc(-c4cccnc4F)cc3c2n1-c1cccc(C(F)(F)F)c1`, the IC50 (Enterovirus A71) was 0.059 µM, the CC50 at 96 h [1] was 1.23 µM and the inhibition (mTORC1 (Homo sapiens)) was “Active”. For the same compound, the inhibition (mTORC2 (Homo sapiens)) was “Active” and the Ratio [2] was 5.
For `CC(=O)/C=C/c1cnc2ccc(-c3cccc(N)c3)cc2c1Nc1cccc(C(F)(F)F)c1`, the CC50 at 96 h [1] was greater than 200 µM.
For `COc1ccc(-c2ccc3ncc4ccc(=O)n(-c5cccc(C(F)(F)F)c5)c4c3c2)cn1`, the IC50 (Enterovirus A71) was 0.04 µM, the CC50 at 96 h [1] was 0.13 µM and the inhibition (mTORC1 (Homo sapiens)) was “Active”. For the same compound, the inhibition (mTORC2 (Homo sapiens)) was “Active”.
In the case of `Nc1cccc(Nc2ccc3ncc4ccc(=O)n(-c5cccc(C(F)(F)F)c5)c4c3c2)c1`, the IC50 (Enterovirus A71) is reported as 0.89 µM, the CC50 at 96 h [1] is reported as 7.58 µM and the inhibition (mTORC1 (Homo sapiens)) is reported as “Active”. For the same compound, the inhibition (mTORC2 (Homo sapiens)) was “Active”.
With `CCCCC(=O)Nc1ccc(-c2ccc3ncc4ccc(=O)n(-c5cccc(C(F)(F)F)c5)c4c3c2)cn1` the IC50 (Enterovirus A71) was 0.2 µM, the CC50 at 96 h [1] was 0.7 µM and the inhibition (mTORC1 (Homo sapiens)) was “Active”. The inhibition (mTORC2 (Homo sapiens)) was “Active”.
With `O=c1ccc2cnc3ccc(-c4ccc(N5CCCC5)nc4)cc3c2n1-c1cccc(C(F)(F)F)c1` the IC50 (Enterovirus A71) was 2.47 µM, the CC50 at 96 h [1] was 1.79 µM and the inhibition (mTORC1 (Homo sapiens)) was “Active”. The inhibition (mTORC2 (Homo sapiens)) was “Active”.
`Nc1ccc(-c2ccc3ncc4ccc(=O)n(-c5cccc(C(F)(F)F)c5)c4c3c2)cn1` gave an IC50 (Enterovirus A71) of 0.01 µM and a solubility [3] of 1.29 µg/mL (≈ 2.98 µM).
In the case of `O=C(Nc1ccc(-c2ccc3ncc4ccc(=O)n(-c5cccc(C(F)(F)F)c5)c4c3c2)cn1)OCc1ccccc1`, the IC50 (Enterovirus A71) is reported as 23.7 µM, the CC50 at 96 h [1] is reported as 1 µM and the inhibition (mTORC1 (Homo sapiens)) is reported as “Active”. For the same compound, the inhibition (mTORC2 (Homo sapiens)) was “Active”.
In the case of `O=C(Cc1ccccc1)Nc1ccc(-c2ccc3ncc4ccc(=O)n(-c5cccc(C(F)(F)F)c5)c4c3c2)cn1`, the IC50 (Enterovirus A71) is reported as 0.56 µM, the CC50 at 96 h [1] is reported as 0.74 µM and the inhibition (mTORC1 (Homo sapiens)) is reported as “Active”. The inhibition (mTORC2 (Homo sapiens)) was “Active”.
For `COc1cncc(-c2ccc3ncc(/C=C/C(C)=O)c(Nc4cccc(C(F)(F)F)c4)c3c2)c1`, the CC50 at 96 h [1] was greater than 200 µM.
With `COc1cncc(-c2ccc3ncc4oc(=O)n(-c5cccc(C(F)(F)F)c5)c4c3c2)c1` the CC50 at 96 h [1] was 68.5 µM.
In the case of `Cc1ccc(-c2ccc3ncc4oc(=O)n(-c5cccc(C(F)(F)F)c5)c4c3c2)cn1`, the IC50 (Enterovirus A71) is reported as 4.78 µM, the CC50 at 96 h [1] is reported as 16.9 µM and the inhibition (mTORC1 (Homo sapiens)) is reported as “inactive”. For the same compound, the inhibition (mTORC2 (Homo sapiens)) was “inactive”.
With `CN1CCN(c2ccc(-c3ccc4ncc5ccc(=O)n(-c6cccc(C(F)(F)F)c6)c5c4c3)cn2)CC1` the IC50 (Enterovirus A71) was 0.09 µM, the CC50 at 96 h [1] was 0.18 µM and the inhibition (mTORC1 (Homo sapiens)) was “Active”. The Ratio [2] was 15.
For `CO[C@H]1C[C@@H]2CC[C@@H](C)[C@@](O)(O2)C(=O)C(=O)N2CCCC[C@H]2C(=O)O[C@H]([C@H](C)C[C@@H]2CC[C@@H](O)[C@H](OC)C2)CC(=O)[C@H](C)/C=C(\C)[C@@H](O)[C@@H](OC)C(=O)[C@H](C)C[C@H](C)/C=C/C=C/C=C/1C`, the inhibition (mTORC1 (Homo sapiens)) was “Active”.
`CC(=O)/C=C/c1cnc2ccc(-c3ccc(F)nc3)cc2c1Nc1cccc(C(F)(F)F)c1` gave a CC50 at 96 h [1] of 2.23 µM.
Work on `O=c1oc2cnc3ccc(-c4cnc5ccccc5c4)cc3c2n1-c1cccc(C(F)(F)F)c1` yielded a CC50 at 96 h [1] of 68.9 µM.
Compound `COc1ncccc1-c1ccc2ncc3ccc(=O)n(-c4cccc(C(F)(F)F)c4)c3c2c1` has a CC50 at 96 h [1] greater than 200 µM.
With `NC(=O)NC/C=C/c1ccc2ncc3oc(=O)n(-c4cccc(C(F)(F)F)c4)c3c2c1` the IC50 (Enterovirus A71) was 48.9 µM, the CC50 at 96 h [1] was 66.6 µM and the inhibition (mTORC1 (Homo sapiens)) was “inactive”. The inhibition (mTORC2 (Homo sapiens)) was “inactive”.
With `CC(C)C(=O)Nc1ccc(-c2ccc3ncc4ccc(=O)n(-c5cccc(C(F)(F)F)c5)c4c3c2)cn1` the IC50 (Enterovirus A71) was 0.82 µM, the CC50 at 96 h [1] was 0.46 µM and the inhibition (mTORC1 (Homo sapiens)) was “Active”. The inhibition (mTORC2 (Homo sapiens)) was “Active”.
With `O=c1ccc2cnc3ccc(-c4ccc(F)nc4)cc3c2n1-c1cccc(C(F)(F)F)c1` the IC50 (Enterovirus A71) was 0.07 µM, the CC50 at 96 h [1] was 0.23 µM and the inhibition (mTORC1 (Homo sapiens)) was “Active”. The inhibition (mTORC2 (Homo sapiens)) was “Active”.
With `CCCC(=O)Nc1ccc(-c2ccc3ncc4ccc(=O)n(-c5cccc(C(F)(F)F)c5)c4c3c2)cn1` the IC50 (Enterovirus A71) was 0.17 µM, the CC50 at 96 h [1] was 0.75 µM and the inhibition (mTORC1 (Homo sapiens)) was “Active”. For the same compound, the inhibition (mTORC2 (Homo sapiens)) was “Active”.
